Laboratory results taken from publication PMC7252619 (PLoS ONE, 2020).
Like-named read-outs stand apart in the source and are kept apart here. Each block holds one compound with its values, some of them ahead of it.

Legend:
[1] = target: T1, DAPK1 (Homo sapiens, UniProt P53355); test: Kinase activity test (ReactionBiology), % enzyme activity relative to DMSO; assay type: biochemical; details: DAPK1; for % Enzyme Activity (relative to DMSO controls), Data 1: replicate Data 1; for % Enzyme Activity (relative to DMSO controls), Data 2: replicate Data 2
T1 construct: purchased ReactionBiology

[2] = target: T2, CDC7 (Homo sapiens, UniProt O00311); test: as above; assay type: biochemical; details: CDC7; for % Enzyme Activity (relative to DMSO controls), Data 1: replicate Data 1; for % Enzyme Activity (relative to DMSO controls), Data 2: replicate Data 2;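 on all read-outs here: each drug screened at both 10 µM and 1 µM across a ten-kinase panel, activity expressed as percent of DMSO control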
T2 construct: purchased ReactionBiology

[3] = target: T3, EPHB4 (Homo sapiens, UniProt P54760); test: as above; assay type: biochemical; details: EPHB4; for % Enzyme Activity (relative to DMSO controls), Data 1: replicate Data 1; for % Enzyme Activity (relative to DMSO controls), Data 2: replicate Data 2;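 on all read-outs here: EPHB4 was one of ten selected kinases in the screening panel, with enzyme activity expressed as a percentage of DMSO controls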
T3 construct: purchased ReactionBiology
T3 sequence (P54760 16-987): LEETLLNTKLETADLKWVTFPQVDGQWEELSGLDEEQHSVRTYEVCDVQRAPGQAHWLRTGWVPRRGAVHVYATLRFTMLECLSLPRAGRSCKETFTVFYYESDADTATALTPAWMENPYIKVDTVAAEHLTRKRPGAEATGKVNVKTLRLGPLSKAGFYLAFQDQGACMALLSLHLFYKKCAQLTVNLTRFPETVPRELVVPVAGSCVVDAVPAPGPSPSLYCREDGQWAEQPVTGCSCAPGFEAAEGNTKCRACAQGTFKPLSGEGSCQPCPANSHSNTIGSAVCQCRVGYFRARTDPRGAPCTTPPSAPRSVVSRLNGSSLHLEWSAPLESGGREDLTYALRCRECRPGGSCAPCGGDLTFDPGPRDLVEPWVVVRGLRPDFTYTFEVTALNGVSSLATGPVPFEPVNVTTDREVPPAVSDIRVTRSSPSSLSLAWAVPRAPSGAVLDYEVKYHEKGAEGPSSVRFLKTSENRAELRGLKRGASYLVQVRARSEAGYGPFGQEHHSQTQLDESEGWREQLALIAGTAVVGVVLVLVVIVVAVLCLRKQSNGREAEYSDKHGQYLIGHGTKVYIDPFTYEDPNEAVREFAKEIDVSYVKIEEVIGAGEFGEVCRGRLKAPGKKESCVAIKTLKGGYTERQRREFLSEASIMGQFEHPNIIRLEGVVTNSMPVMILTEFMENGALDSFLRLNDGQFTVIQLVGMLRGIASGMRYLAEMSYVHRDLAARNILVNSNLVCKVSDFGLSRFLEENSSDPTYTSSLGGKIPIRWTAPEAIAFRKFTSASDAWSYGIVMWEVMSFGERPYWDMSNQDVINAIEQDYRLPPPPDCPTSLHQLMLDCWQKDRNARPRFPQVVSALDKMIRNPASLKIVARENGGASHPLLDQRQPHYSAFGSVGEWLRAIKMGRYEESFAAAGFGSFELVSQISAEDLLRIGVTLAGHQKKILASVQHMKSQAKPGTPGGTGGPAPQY

[4] = target: VEGFR2 (Homo sapiens, UniProt P35968); test: as above; assay type: biochemical; set-up: purchased ReactionBiology; details: VEGFR2;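 further: VEGFR2 was one member of a ten-kinase screening panel testing marketed FDA-approved drugs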
[5] = target: T4, NEK2 (Homo sapiens, UniProt P51955); test: as above; assay type: biochemical; details: NEK2;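 further: FDA-approved drugs chosen by structure-based repositioning, each screened at 10 or 1 µM for kinase activity, expressed as percent of DMSO controls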
T4 construct: purchased ReactionBiology
T4 sequence (P51955 1-445): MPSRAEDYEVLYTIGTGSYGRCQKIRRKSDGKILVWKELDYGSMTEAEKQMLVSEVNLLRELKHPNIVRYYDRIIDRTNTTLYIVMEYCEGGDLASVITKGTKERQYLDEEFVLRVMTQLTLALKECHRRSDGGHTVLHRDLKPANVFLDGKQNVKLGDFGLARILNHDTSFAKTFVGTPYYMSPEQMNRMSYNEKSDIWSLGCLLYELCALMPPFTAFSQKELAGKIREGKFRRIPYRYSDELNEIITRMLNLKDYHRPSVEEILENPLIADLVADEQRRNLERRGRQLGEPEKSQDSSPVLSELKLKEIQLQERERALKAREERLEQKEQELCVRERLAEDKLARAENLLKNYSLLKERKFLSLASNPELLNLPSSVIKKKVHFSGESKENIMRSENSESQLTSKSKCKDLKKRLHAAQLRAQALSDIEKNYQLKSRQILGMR

[6] = target: T5, MAP2K2 (Homo sapiens, UniProt P36507); test: as above; assay type: biochemical; details: MEK2
T5 construct: purchased ReactionBiology

[7] = WST-1 cytotoxicity assay on RPMI1788 cells (B-cell line); assay type: cell-based, human; details: human, RPMI1788 cells (B-cell line), mean of 4 independent measures, read-out: Cytotoxicity, WST-1 RPMI 1788 IC 50 (µM) Mean
[8] = WST-1 cytotoxicity assay on Jurkat cells (T-cell line); assay type: cell-based, human; details: human, Jurkat cells (T-cell line), mean of 4 independent measures, read-out: Cytotoxicity, WST-1 Jurkat IC 50 (µM) Mean
Method: (§1) Compounds were prepared as 10 mM stock solutions in dimethylsulfoxide (DMSO)and were tested at 50-10-1-0.1-0.01 and 0.001 μM in the 4 assays.
The human B cell line RPMI1788 (American Type Culture Collection, USA) and the human T cell line Jurkat (European Collection of Cell Cultures, ECACC, England) were maintained in RPMI1640 culture medium (BioWhittaker®, Lonza, Verviers, Belgium) containing 10% foetal calf serum (FCS, HyClone® Thermo Scientific, United Kingdom) and 5 μg/mL gentamicin sulphate (BioWhittaker®, Lonza, Verviers, Belgium) at 37°C and 5% CO2.
WST-1 assays on RPMI-1788 cells and Jurkat cells were performed as follows: 20 μL of test compound dilution were added to each well containing exponential growing cells and the plates were incubated for 48 h at 37°C, 5% CO2. Untreated cells and positive control (1% triton X-100, for the last 15 min) served as reference for maximum and minimum viability. At the end of incubation 100 μL of supernatant were removed and replaced by 10 μL of WST-1 solution (Cell Proliferation Reagent WST-1, Roche Applied Science).

[9] = test system: human CD19+ B cells; test: B-cell assay: IgG production of ODN2006-stimulated primary B cells (AlphaLISA); assay type: cell-based; details: Homo sapiens, B-cell, 168 h, read-out: B-cell IC50 (μM)
Method: as §1
Blood samples of healthy volunteers were collected at the Red Cross of Mechelen, Belgium.
Highly purified naive peripheral human B cells were separated from fresh human PBMCs on magnetic columns by positive selection using CD19 magnetic beads according to the manufacturer’s instructions (MACS Miltenyi Biotech, Leiden, The Netherlands). […] Freshly isolated human CD19+ B cells were then plated at 25 000 cells per well in a 384-well plate (Perkin Elmer, Zaventem, Belgium) in 55 μL in DMEM medium containing 10% FCS and 5 μg/mL gentamicin sulphate. After 7 days of stimulation with 0.1 μM ODN2006 (InvivoGen, Toulouse, France), supernatant was taken for analysis of IgG using the AlphaLISA human IgG kit according to the manufacturer’s instructions (Perkin Elmer, Zaventem, Belgium).

[10] = test system: human PBMCs (responder cells) with RPMI1788 stimulator cells; test: Mixed Lymphocyte Reaction (MLR, T cell assay), 3H-thymidine incorporation; assay type: cell-based; details: Homo sapiens, RPMI-1788; mean of 4 independent measures; read-out: T-cell efficacy, MLR IC 50 (µM) Mean
Method: In order to test the efficacy and selectivity of the hit compounds on B-cells, 4 assays were performed: B-cell assay, Mixed Lymphocyte Reaction (MLR), WST-1 assay on RPMI1788 cells (B-cell line) and cytotoxicity WST-1 assay on Jurkat cells (T-cell line). Compounds were prepared as 10 mM stock solutions in dimethylsulfoxide (DMSO)and were tested at 50-10-1-0.1-0.01 and 0.001 μM in the 4 assays.
Blood samples of healthy volunteers were collected at the Red Cross of Mechelen, Belgium. Each donor consents to the use of their blood for research purposes. […] The human B cell line RPMI1788 (American Type Culture Collection, USA) and the human T cell line Jurkat (European Collection of Cell Cultures, ECACC, England) were maintained in RPMI1640 culture medium (BioWhittaker®, Lonza, Verviers, Belgium) containing 10% foetal calf serum (FCS, HyClone® Thermo Scientific, United Kingdom) and 5 μg/mL gentamicin sulphate (BioWhittaker®, Lonza, Verviers, Belgium) at 37°C and 5% CO2.
MLR assay (T cell assay): Freshly isolated human PBMCs (responder cells) were resuspended in RPMI1640 medium containing 10% FCS and 5nμg/mL gentamicin sulphate. RPMI1788 cells (stimulator cells) were inactivated by treatment with mitomycin C (Kyowa®, Takeda Belgium, Brussels, Belgium) for 20 min at 37°C, washed and finally suspended in culture medium. An amount of 100 μL of each cell suspension was mixed with 20 μL of diluted compound. The mixed cells were cultured at 37°C for 6 days in 5% CO2. DNA synthesis was assayed by the addition of 10 μCi (methyl-3H) thymidine (Perkin Elmer, Zaventem, Belgium) per well during the last 18 h in culture. Thereafter, the cells were harvested on glass filter paper and the counts per minute determined in a liquid scintillation counter (TopCount, Perkin Elmer, Zaventem, Belgium).

[11] = Average, read-out: % Enzyme Activity (relative to DMSO controls), Average
[12] = replicate Data 1, read-out: % Enzyme Activity (relative to DMSO controls), Data 1
[13] = replicate Data 2, read-out: % Enzyme Activity (relative to DMSO controls), Data 2

T2 sequence (O00311 whole entry): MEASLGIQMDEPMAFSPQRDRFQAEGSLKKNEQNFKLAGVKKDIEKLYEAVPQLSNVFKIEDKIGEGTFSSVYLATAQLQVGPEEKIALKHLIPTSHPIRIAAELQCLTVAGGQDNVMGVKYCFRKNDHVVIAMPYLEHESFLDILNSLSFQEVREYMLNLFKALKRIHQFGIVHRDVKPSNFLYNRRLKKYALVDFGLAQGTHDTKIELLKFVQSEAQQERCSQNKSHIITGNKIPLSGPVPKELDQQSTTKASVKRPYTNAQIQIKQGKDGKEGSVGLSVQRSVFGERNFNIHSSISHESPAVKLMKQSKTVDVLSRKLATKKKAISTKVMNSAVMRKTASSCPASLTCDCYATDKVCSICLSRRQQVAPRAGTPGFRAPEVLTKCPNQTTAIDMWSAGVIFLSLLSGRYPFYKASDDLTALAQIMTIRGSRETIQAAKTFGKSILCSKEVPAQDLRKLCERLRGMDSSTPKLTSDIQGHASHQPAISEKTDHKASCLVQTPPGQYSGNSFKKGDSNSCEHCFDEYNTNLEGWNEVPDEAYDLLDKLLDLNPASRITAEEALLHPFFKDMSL
T2 sequence (Q9UBU7 whole entry partner): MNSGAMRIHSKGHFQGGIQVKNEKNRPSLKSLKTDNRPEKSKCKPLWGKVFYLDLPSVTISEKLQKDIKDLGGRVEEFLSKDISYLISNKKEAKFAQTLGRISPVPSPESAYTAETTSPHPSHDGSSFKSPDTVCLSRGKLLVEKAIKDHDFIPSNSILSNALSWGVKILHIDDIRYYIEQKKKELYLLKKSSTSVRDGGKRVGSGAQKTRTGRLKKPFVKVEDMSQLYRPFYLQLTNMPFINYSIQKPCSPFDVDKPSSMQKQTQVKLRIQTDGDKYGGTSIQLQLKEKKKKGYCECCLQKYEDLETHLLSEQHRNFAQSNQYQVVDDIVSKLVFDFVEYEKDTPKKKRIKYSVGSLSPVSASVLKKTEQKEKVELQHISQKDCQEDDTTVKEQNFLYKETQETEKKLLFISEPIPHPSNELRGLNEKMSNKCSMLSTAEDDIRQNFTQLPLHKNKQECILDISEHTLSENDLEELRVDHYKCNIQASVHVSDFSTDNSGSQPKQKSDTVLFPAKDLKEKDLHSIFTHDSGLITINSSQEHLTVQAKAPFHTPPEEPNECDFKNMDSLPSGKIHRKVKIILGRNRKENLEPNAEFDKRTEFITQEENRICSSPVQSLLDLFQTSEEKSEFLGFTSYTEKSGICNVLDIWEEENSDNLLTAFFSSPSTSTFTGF
T5 sequence (P36507 whole entry): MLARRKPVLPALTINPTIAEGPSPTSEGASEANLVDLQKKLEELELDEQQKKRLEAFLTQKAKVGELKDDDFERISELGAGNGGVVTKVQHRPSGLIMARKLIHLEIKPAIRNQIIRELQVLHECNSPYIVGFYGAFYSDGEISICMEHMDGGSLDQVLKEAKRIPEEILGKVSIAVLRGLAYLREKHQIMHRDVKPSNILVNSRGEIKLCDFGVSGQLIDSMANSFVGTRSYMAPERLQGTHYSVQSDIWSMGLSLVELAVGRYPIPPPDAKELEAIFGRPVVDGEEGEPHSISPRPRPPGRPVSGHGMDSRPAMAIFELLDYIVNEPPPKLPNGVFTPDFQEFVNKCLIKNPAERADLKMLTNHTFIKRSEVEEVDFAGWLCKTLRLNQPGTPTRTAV
T1 sequence (P53355 whole entry): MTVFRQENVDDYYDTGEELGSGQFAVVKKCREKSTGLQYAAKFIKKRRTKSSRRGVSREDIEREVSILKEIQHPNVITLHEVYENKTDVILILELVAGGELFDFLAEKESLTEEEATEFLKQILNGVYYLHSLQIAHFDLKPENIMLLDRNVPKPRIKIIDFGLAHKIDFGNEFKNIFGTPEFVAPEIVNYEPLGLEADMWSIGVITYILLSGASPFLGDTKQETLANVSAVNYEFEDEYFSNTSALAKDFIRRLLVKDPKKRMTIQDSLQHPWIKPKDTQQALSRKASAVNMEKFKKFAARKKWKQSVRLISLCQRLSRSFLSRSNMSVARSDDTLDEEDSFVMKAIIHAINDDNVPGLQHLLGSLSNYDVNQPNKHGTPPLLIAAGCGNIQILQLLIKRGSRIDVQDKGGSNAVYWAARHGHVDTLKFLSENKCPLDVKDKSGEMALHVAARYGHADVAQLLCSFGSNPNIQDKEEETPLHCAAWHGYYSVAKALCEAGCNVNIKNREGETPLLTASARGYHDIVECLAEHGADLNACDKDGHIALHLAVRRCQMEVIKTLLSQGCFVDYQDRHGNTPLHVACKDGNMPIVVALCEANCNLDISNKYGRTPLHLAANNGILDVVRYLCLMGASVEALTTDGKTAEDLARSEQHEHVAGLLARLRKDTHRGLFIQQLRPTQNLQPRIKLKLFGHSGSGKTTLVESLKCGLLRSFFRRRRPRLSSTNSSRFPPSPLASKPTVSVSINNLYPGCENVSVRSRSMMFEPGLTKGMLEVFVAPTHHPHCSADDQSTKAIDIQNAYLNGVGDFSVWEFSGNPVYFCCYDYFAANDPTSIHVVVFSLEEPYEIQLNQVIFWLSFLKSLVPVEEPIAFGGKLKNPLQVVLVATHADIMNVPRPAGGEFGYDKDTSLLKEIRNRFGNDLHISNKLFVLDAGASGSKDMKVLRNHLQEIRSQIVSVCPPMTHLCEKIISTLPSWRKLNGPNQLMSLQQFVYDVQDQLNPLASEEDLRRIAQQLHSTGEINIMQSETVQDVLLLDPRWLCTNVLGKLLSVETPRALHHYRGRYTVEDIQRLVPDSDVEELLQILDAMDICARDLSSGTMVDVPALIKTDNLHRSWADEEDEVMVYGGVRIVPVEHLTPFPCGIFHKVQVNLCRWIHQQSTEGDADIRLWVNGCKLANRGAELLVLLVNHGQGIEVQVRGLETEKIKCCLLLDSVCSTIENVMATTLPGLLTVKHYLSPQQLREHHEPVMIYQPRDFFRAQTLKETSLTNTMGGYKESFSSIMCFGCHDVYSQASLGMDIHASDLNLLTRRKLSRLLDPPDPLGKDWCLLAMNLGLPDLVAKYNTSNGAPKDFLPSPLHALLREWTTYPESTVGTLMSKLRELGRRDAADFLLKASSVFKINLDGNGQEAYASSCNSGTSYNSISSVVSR
Sequence of VEGFR2 (P35968 20-1356): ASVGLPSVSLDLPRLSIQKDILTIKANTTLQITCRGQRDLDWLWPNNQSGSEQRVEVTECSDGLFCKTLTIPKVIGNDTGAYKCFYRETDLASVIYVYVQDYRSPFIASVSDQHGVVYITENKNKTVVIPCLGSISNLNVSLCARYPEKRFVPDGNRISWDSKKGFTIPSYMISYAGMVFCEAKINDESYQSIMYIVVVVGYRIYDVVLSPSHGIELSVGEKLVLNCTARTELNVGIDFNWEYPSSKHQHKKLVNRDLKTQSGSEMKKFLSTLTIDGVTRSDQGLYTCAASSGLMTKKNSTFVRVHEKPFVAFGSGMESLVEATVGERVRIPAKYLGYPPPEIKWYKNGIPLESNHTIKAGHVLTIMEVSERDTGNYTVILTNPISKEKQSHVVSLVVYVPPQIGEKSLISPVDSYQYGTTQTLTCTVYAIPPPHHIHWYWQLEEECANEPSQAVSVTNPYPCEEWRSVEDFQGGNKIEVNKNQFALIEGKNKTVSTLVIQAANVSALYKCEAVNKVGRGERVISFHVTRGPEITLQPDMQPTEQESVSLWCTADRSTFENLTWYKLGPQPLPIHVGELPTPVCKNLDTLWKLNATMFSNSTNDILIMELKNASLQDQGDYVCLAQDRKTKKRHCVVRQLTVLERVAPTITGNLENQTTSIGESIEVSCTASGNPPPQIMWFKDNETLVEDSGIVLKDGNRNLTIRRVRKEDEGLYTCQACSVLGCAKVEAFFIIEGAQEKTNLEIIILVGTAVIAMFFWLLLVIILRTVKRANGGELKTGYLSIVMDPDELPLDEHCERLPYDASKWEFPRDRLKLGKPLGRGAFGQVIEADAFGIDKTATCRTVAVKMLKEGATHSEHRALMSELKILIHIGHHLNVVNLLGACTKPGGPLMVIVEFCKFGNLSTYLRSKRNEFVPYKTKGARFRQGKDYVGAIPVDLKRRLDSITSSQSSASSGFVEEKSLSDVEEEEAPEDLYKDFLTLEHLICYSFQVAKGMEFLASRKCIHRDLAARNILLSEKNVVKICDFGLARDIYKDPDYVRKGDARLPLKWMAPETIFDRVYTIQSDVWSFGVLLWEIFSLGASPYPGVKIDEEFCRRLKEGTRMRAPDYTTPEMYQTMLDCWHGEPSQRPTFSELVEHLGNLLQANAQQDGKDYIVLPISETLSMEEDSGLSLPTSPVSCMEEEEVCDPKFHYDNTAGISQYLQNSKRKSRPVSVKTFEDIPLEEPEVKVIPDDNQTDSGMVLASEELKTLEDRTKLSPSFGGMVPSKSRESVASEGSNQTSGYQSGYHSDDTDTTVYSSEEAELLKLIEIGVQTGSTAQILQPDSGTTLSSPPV

% Enzyme Activity (relative to DMSO controls), Average ([1]; 1 uM): 114.18%
% Enzyme Activity (relative to DMSO controls), Data 1 ([1]; 1 uM): 116.14%
% Enzyme Activity (relative to DMSO controls), Data 2 ([1]; 1 uM): 112.22%
% Enzyme Activity (relative to DMSO controls), Average ([1]; 10 uM): 104.62%
% Enzyme Activity (relative to DMSO controls), Data 1 ([1]; 10 uM): 110.58%
% Enzyme Activity (relative to DMSO controls), Data 2 ([1]; 10 uM): 98.66%
% Enzyme Activity (relative to DMSO controls), Average ([2]; 1 uM): 74.38%
% Enzyme Activity (relative to DMSO controls), Data 1 ([2]; 1 uM): 77.32%
% Enzyme Activity (relative to DMSO controls), Data 2 ([2]; 1 uM): 71.43%
% Enzyme Activity (relative to DMSO controls), Average ([2]; 10 uM): 75.76%
% Enzyme Activity (relative to DMSO controls), Data 1 ([2]; 10 uM): 77.92%
% Enzyme Activity (relative to DMSO controls), Data 2 ([2]; 10 uM): 73.60%
% Enzyme Activity (relative to DMSO controls), Average ([3]; 1 uM): 102.86%
% Enzyme Activity (relative to DMSO controls), Data 1 ([3]; 1 uM): 105.83%
% Enzyme Activity (relative to DMSO controls), Data 2 ([3]; 1 uM): 99.88%
% Enzyme Activity (relative to DMSO controls), Average ([3]; 10 uM): 91.65%
% Enzyme Activity (relative to DMSO controls), Data 1 ([3]; 10 uM): 91.79%
% Enzyme Activity (relative to DMSO controls), Data 2 ([3]; 10 uM): 91.51%
% Enzyme Activity (relative to DMSO controls), Average ([4]; 1 uM, Average): 99.23%
% Enzyme Activity (relative to DMSO controls), Data 1 ([4]; 1 uM, replicate Data 1): 98.18%
% Enzyme Activity (relative to DMSO controls), Data 2 ([4]; 1 uM, replicate Data 2): 100.27%
% Enzyme Activity (relative to DMSO controls), Average ([4]; 10 uM, Average): 102.28%
% Enzyme Activity (relative to DMSO controls), Data 1 ([4]; 10 uM, replicate Data 1): 99.63%
% Enzyme Activity (relative to DMSO controls), Data 2 ([4]; 10 uM, replicate Data 2): 104.92%
Compound: C[C@]12CCC(=O)C=C1CC[C@@H]1[C@@H]2[C@@H](O)C[C@@]2(C)[C@H]1CC[C@]2(O)C(=O)CO [Hydrocortisone]

remaining activity at 1 µM [5, 11]: 92.4%
remaining activity at 1 µM [5, 12]: 89.3%
remaining activity at 1 µM [5, 13]: 95.5%
remaining activity at 10 µM [5, 11]: 86.5%
remaining activity at 10 µM [5, 12]: 82.7%
remaining activity at 10 µM [5, 13]: 90.3%
remaining activity at 1 µM [6, 11]: 100%
remaining activity at 1 µM [6, 12]: 101%
remaining activity at 1 µM [6, 13]: 99.3%
remaining activity at 10 µM [6, 11]: 94.3%
remaining activity at 10 µM [6, 12]: 96.2%
remaining activity at 10 µM [6, 13]: 92.4%
remaining activity at 1 µM ([4]; 1 uM, Average, read-out: % Enzyme Activity (relative to DMSO controls), Average): 97.9%
remaining activity at 1 µM ([4]; 1 uM, replicate Data 1, read-out: % Enzyme Activity (relative to DMSO controls), Data 1): 100%
remaining activity at 1 µM ([4]; 1 uM, replicate Data 2, read-out: % Enzyme Activity (relative to DMSO controls), Data 2): 95.6%
remaining activity at 10 µM ([4]; 10 uM, Average, read-out: % Enzyme Activity (relative to DMSO controls), Average): 99.7%
remaining activity at 10 µM ([4]; 10 uM, replicate Data 1, read-out: % Enzyme Activity (relative to DMSO controls), Data 1): 99.4%
remaining activity at 10 µM ([4]; 10 uM, replicate Data 2, read-out: % Enzyme Activity (relative to DMSO controls), Data 2): 100%
Compound: N[C@@H](CC(=O)N1CCn2c(nnc2C(F)(F)F)C1)Cc1cc(F)c(F)cc1F [Sitagliptin]

Compound: C[C@@H]1CCN(C(=O)CC#N)C[C@@H]1N(C)c1ncnc2[nH]ccc12 [Tofacitinib]
IC50 at 48 h [7]: > 50 µM
IC50 at 48 h [8]: > 50 µM

Compound: N[C@@H](Cc1cc(I)c(Oc2ccc(O)c(I)c2)c(I)c1)C(=O)O [Triiodothyronine]
IC50 [9]: 36.8 µM
IC50 [10]: 44.2 µM
IC50 at 48 h [8]: > 50 µM
